Tested on: ATF4 luciferase reporter in HEK293T cells
Assay: ATF4-Luc assay (ATF4 luciferase reporter, tunicamycin-treated HEK293T cells)
Assay type: cell-based, human
Conditions: HEK293T cells carrying the ATF4 luciferase reporter, 1 μg/mL tunicamycin, 7 hours
Method: In order to test exemplary compounds of the invention in a cellular context, a stable VWMD cell line was first constructed. The ATF4 reporter was prepared by fusing the human full-length ATF4 5′-UTR (NCBI Accession No. BC022088.2) in front of the firefly luciferase (FLuc) coding sequence lacking the initiator methionine as described in Sidrauski et al (eLife 2013). The construct was used to produce recombinant retroviruses using standard methods and the resulting viral supernatant was used to transduce HEK293T cells, which were then subsequently selected with puromycin to generate a stable cell line.
HEK293T cells carrying the ATF4 luciferase reporter were plated on polylysine coated 384-well plates (Greiner Bio-one) at 30,000 cells per well. Cells were treated the next day with 1 μg/mL tunicamycin and 200 nM of a compound of Formula (I) for 7 hours. Luminescence was measured using One Glo (Promega) as specified by the manufacturer. Cells were maintained in DMEM with L-glutamine supplemented with 10% heat-inactivated FBS (Gibco) and Antibiotic-Antimycotic solution (Gibco).
Table 2 below summarizes the EC50 data obtained using the ATF4-Luc assay for exemplary compounds of the invention.

| Structure (SMILES) | EC50 (Homo sapiens, HEK-293T) | EC50 |
| --- | --- | --- |
| O=C(COc1ccc(Cl)c(F)c1)NC12CCC(NC(=O)COc3ccc(C(F)(F)F)nc3)(CC1)C(O)C2 (racemic) [Compound 301, 2-(4-chloro-3-fluorophenoxy)-N-[3-hydroxy-4-(2-{[6-(trifluoromethyl)pyridin-3-yl]oxy}acetamido)bicyclo[2.2.2]octan-1-yl]acetamide] | < 10 nM | – |
| O=C(COc1ccc(Cl)c(F)c1)N[C@@]12CC[C@@](NC(=O)COc3ccc(Cl)c(F)c3)(C[C@@H]1O)[C@@H](O)C2 (racemic) [Compound 552, rac-N,N′-[(1R,2S,4R,5S)-2,5-dihydroxybicyclo[2.2.2]octane-1,4-diyl]bis[2-(4-chloro-3-fluorophenoxy)acetamide]] | < 10 nM | – |
| CO[C@H]1C[C@]2(NC(=O)COc3ccc(Cl)c(F)c3)CC[C@@]1(NC(=O)COc1ccc(Cl)c(F)c1)CC2O (mixture of isomers) [Compound 553, rac-N,N′-[(1R,4R,5S)-2-hydroxy-5-methoxybicyclo[2.2.2]octane-1,4-diyl]bis[2-(4-chloro-3-fluorophenoxy)acetamide]] | < 10 nM | – |
| CO[C@@H]1C[C@]2(NC(=O)COc3ccc(Cl)c(F)c3)CC[C@@]1(NC(=O)COc1ccc(Cl)c(F)c1)CC2O (mixture of isomers) [Compound 554, rac-N,N′-[(1R,4R,5R)-2-hydroxy-5-methoxybicyclo[2.2.2]octane-1,4-diyl]bis[2-(4-chloro-3-fluorophenoxy)acetamide]] | < 10 nM | – |
| CO[C@H]1C[C@]2(NC(=O)COc3ccc(Cl)c(F)c3)CC[C@@]1(NC(=O)COc1ccc(Cl)c(F)c1)CC2=O (racemic) [Compound 555, rac-N,N′-[(1R,2S,4R)-2-methoxy-5-oxobicyclo[2.2.2]octane-1,4-diyl]bis[2-(4-chloro-3-fluorophenoxy)acetamide]] | 10 to 50 nM | – |
| CO[C@@H]1C[C@]2(NC(=O)COc3ccc(Cl)c(F)c3)CC[C@@]1(NC(=O)COc1ccc(Cl)c(F)c1)CC2=O (racemic) [Compound 556, rac-N,N′-[(1R,2R,4R)-2-methoxy-5-oxobicyclo[2.2.2]octane-1,4-diyl]bis[2-(4-chloro-3-fluorophenoxy)acetamide]] | 10 to 50 nM | – |
| O=C(COc1ccc(Cl)c(F)c1)NC12CCC(NC(=O)COc3ccc(Cl)c(F)c3)(C[C@H]1O)[C@@H](O)C2 (racemic) [Compound 557, rac-N,N′-[(2R,5S)-2,5-dihydroxybicyclo[2.2.2]octane-1,4-diyl]bis[2-(4-chloro-3-fluorophenoxy)acetamide]] | < 10 nM | – |
| O=C(COc1ccc(Cl)c(F)c1)N[C@]12CC[C@](NC(=O)COc3ccc(Cl)c(F)c3)(C[C@@H]1O)[C@@H](O)C2 (racemic) [Compound 560, rac-N,N′-[(1S,2S,4S,5S)-2,5-dihydroxybicyclo[2.2.2]octane-1,4-diyl]bis[2-(4-chloro-3-fluorophenoxy)acetamide]] | < 10 nM | – |
| O=C(COc1ccc(Cl)c(F)c1)NC12CCC(NC(=O)COc3ccc(Cl)c(F)c3)(CC1)[C@@H](O)[C@H]2Br (racemic) [Compound 571, rac-N,N′-[(2S,3R)-2-bromo-3-hydroxybicyclo[2.2.2]octane-1,4-diyl]bis[2-(4-chloro-3-fluorophenoxy)acetamide]] | 10 to 50 nM | – |
| O=C(COc1ccc(Cl)c(F)c1)N[C@]12CC[C@](NC(=O)COc3ccc(Cl)c(F)c3)(C1)[C@H](O)C2 (racemic) [Compound 579, rac-N,N′-[(1S,2R,4R)-2-hydroxybicyclo[2.2.1]heptane-1,4-diyl]bis[2-(4-chloro-3-fluorophenoxy)acetamide]] | 10 to 50 nM | – |
| O=C(COc1ccc(Cl)c(F)c1)N[C@]12CC[C@](NC(=O)COc3ccc(Cl)c(F)c3)(C1)[C@@H](O)C2 (racemic) [Compound 585, rac-N,N′-[(1S,2S,4R)-2-hydroxybicyclo[2.2.1]heptane-1,4-diyl]bis[2-(4-chloro-3-fluorophenoxy)acetamide]] | < 10 nM | – |
| O=C(COc1ccc(Cl)c(F)c1)N[C@@H]1[C@@H]2CC[C@@](NC(=O)COc3ccc(Cl)c(F)c3)(C2)C[C@H]1O (racemic) [Compound 625, rac-N,N′-[(1R,3R,4R,5R)-3-hydroxybicyclo[3.2.1]octane-1,4-diyl]bis[2-(4-chloro-3-fluorophenoxy)acetamide]] | < 10 nM | – |
| O=C(COc1ccc(Cl)c(F)c1)N[C@@H]1C[C@@H]2C[C@H]1C[C@H]2NC(=O)COc1ccc(Cl)c(F)c1 (racemic) [Compound 628, rac-N,N′-[(1R,2S,4R,5S)-bicyclo[2.2.1]heptane-2,5-diyl]bis[2-(4-chloro-3-fluorophenoxy)acetamide]] | < 10 nM | – |
| O=C(COc1ccc(Cl)c(F)c1)N[C@@H]1[C@@H]2CC[C@@](NC(=O)COc3ccc(Cl)c(F)c3)(C2)C[C@@H]1O (racemic) [Compound 638, rac-N,N′-[(1R,3S,4R,5R)-3-hydroxybicyclo[3.2.1]octane-1,4-diyl]bis[2-(4-chloro-3-fluorophenoxy)acetamide]] | < 10 nM | – |
| O=C(COc1ccc(Cl)c(F)c1)N[C@]12CC[C@H](C1)[C@@H](NCCOc1ccc(Cl)c(F)c1)[C@H](O)C2 (racemic) [Compound 649, rac-2-(4-chloro-3-fluorophenoxy)-N-[(1R,3R,4R,5R)-4-{[2-(4-chloro-3-fluorophenoxy)ethyl]amino}-3-hydroxybicyclo[3.2.1]octan-1-yl]acetamide] | < 10 nM | – |
| O=C(COc1ccc(Cl)c(F)c1)N[C@@H]1CC[C@]2(NC(=O)COc3ccc(Cl)c(F)c3)CC[C@H]1C2 (racemic) [Compound 653, rac-N,N′-[(1S,4S,5R)-bicyclo[3.2.1]octane-1,4-diyl]bis[2-(4-chloro-3-fluorophenoxy)acetamide]] | < 10 nM | – |
| O=C(COc1ccc(Cl)c(F)c1)NC12CCC(NC(=O)COc3ccc(Cl)c(F)c3)(CC1)[C@@H](O)[C@@H]2O (racemic) [Compound 745, rac-N,N′-[(2R,3R)-2,3-dihydroxybicyclo[2.2.2]octane-1,4-diyl]bis[2-(4-chloro-3-fluorophenoxy)acetamide]] | < 10 nM | – |

| Structure (SMILES) | EC50 (Homo sapiens, HEK-293T) | EC50 |
| --- | --- | --- |
| O=C(COc1ccc(Cl)c(F)c1)NC12CCC(NC(=O)COc3ccc(Cl)c(F)c3)(CC1)[C@H](O)C2 (single isomer, unassigned) [Compound 298] | < 10 nM | – |
| O=C(COc1ccc(Cl)c(F)c1)NC12CCC(NC(=O)COc3ccc(C(F)(F)F)nc3)(CC1)[C@@H](O)C2 (single isomer, unassigned) [Compound 302] | < 10 nM | – |
| O=C(COc1ccc(Cl)c(F)c1)NC12CCC(NC(=O)COc3ccc(C(F)(F)F)nc3)(CC1)[C@H](O)C2 (single isomer, unassigned) [Compound 303] | 10 to 50 nM | – |
| O=C(COc1ccc(Cl)c(F)c1)NC12CCC(NC(=O)COc3ccnc(C(F)(F)F)c3)(CC1)[C@H](O)C2 (single isomer, unassigned) [Compound 318] | 10 to 50 nM | – |
| O=C(COc1ccc(Cl)c(F)c1)NC12CCC(NC(=O)COc3ccnc(C(F)(F)F)c3)(CC1)[C@@H](O)C2 (single isomer, unassigned) [Compound 319] | < 10 nM | – |
| O=C(COc1ccc(Cl)c(F)c1)NC12CCC(NC(=O)COc3ccc(F)cc3)(CC1)[C@H](O)C2 (single isomer, unassigned) [Compound 353] | < 10 nM | – |
| O=C(COc1ccc(Cl)c(F)c1)NC12CCC(NC(=O)COc3ccc(F)cc3)(CC1)[C@@H](O)C2 (single isomer, unassigned) [Compound 354] | < 10 nM | – |
| O=C(COc1ccc(Cl)c(F)c1)NC12CCC(NC(=O)COc3ccc(C(F)(F)F)nc3)(CC1)C(F)C2 (single isomer, unassigned) [Compound 372] | 50 to 250 nM | – |
| O=C(COc1ccc(Cl)c(F)c1)NC12CCC(NC(=O)COc3ccc(C(F)(F)F)nc3)(CC1)C(F)C2 (single isomer, unassigned) [Compound 373] | – | 50 to 250 nM |
| CC(=O)O[C@@H]1CC2(NC(=O)COc3ccc(Cl)c(F)c3)CCC1(NC(=O)COc1ccc(Cl)c(F)c1)CC2 (single isomer, unassigned) [Compound 449] | 10 to 50 nM | – |
| O=C(COc1ccc(Cl)c(F)c1)N[C@H]1C[C@H]2C[C@@H]1C[C@@H]2NC(=O)COc1ccc(Cl)c(F)c1 (single isomer, unassigned) [Compound 620] | < 10 nM | – |
| O=C(COc1ccc(Cl)c(F)c1)N[C@@H]1C[C@@H]2C[C@H]1C[C@H]2NC(=O)COc1ccc(Cl)c(F)c1 (single isomer, unassigned) [Compound 621] | < 10 nM | – |
| O=C(COc1ccc(Cl)c(F)c1)NC12CCC(N[C@H](CCOc3ccc(Cl)cc3)C(=O)O)(CC1)C[C@@H]2O (single isomer, unassigned) [Compound 693] | 500 to 2000 nM | – |
| O=C(COc1ccc(Cl)c(F)c1)NC12CCC(N[C@@H](CCOc3ccc(Cl)cc3)C(=O)O)(CC1)C[C@@H]2O (single isomer, unassigned) [Compound 694] | 250 to 500 nM | – |
| O=C(COc1ccc(Cl)c(F)c1)NC12CCC(NC(=O)COc3ccc(Cl)c(F)c3)(CC1)CC2 [Compound 100, N,N′-(bicyclo[2.2.2]octane-1,4-diyl)bis[2-(4-chloro-3-fluorophenoxy)acetamide]] | < 10 nM | – |
| O=C(COc1ccc(C(F)(F)F)nc1)NC12CCC(NC(=O)COc3ccc(Cl)c(F)c3)(CC1)CC2 [Compound 101, 2-(4-chloro-3-fluorophenoxy)-N-[4-(2-{[6-(trifluoromethyl)pyridin-3-yl]oxy}acetamido)bicyclo[2.2.2]octan-1-yl]acetamide] | 10 to 50 nM | – |

Reference: US20240166652A1, “MODULATORS OF THE INTEGRATED STRESS PATHWAY” (Calico Life Sciences LLC, priority 2017, published 2024)
